Assays:
[1] = xn = mol fraction of the nth substance listed; details: 101 kPa, Liquid; for viscosity: Stabinger Viscometer; for mass density: Vibrating tube method
[2] = refractive index (Na D-line) (dimensionless); xn = mol fraction of the nth substance listed; details: 101 kPa, Liquid, Standard Abbe refractometry

CCn1cc[n+](C)c1.NCCS(=O)(=O)[O-] [1-ethyl-3-methylimidazolium taurinate] + CCn1cc[n+](C)c1.N#C[C-](C#N)C#N
Details | mass density, [1] [kg/m3] | refractive index, [2] | viscosity, [1] [mPa·s]
293.15 K, x2 = 0 | 1255 | 1.5135 | 760.89
293.15 K, x2 = 0.2503 | 1207.7 | 1.51268 | 250.33
293.15 K, x2 = 0.5001 | 1164.8 | 1.51322 | 84.5
293.15 K, x2 = 0.7496 | 1124.1 | 1.51365 | 35.42
298.15 K, x2 = 0 | 1251.5 | 1.51217 | 514.67
298.15 K, x2 = 0.2503 | 1204.4 | 1.51131 | 180.68
298.15 K, x2 = 0.5001 | 1161.4 | 1.51166 | 64.77
298.15 K, x2 = 0.7496 | 1120.6 | 1.5121 | 28.77
303.15 K, x2 = 0 | 1248.1 | 1.51084 | 359.36
303.15 K, x2 = 0.2503 | 1201.1 | 1.50995 | 133.6
303.15 K, x2 = 0.5001 | 1158 | 1.5102 | 50.77
303.15 K, x2 = 0.7496 | 1117.2 | 1.51054 | 23.71
308.15 K, x2 = 0 | 1244.8 | 1.5095 | 258.04
308.15 K, x2 = 0.2503 | 1197.9 | 1.50858 | 101.33
308.15 K, x2 = 0.5001 | 1154.7 | 1.50871 | 40.59
308.15 K, x2 = 0.7496 | 1113.8 | 1.50894 | 19.84
313.15 K, x2 = 0 | 1241.6 | 1.50816 | 190.44
313.15 K, x2 = 0.2503 | 1194.7 | 1.50716 | 78.59
313.15 K, x2 = 0.5001 | 1151.4 | 1.50723 | 33.04
313.15 K, x2 = 0.7496 | 1110.4 | 1.50736 | 16.61
318.15 K, x2 = 0 | 1238.6 | 1.5068 | 143.31
318.15 K, x2 = 0.2503 | 1191.7 | 1.50578 | 61.69
318.15 K, x2 = 0.5001 | 1148.2 | 1.50574 | 27.27
318.15 K, x2 = 0.7496 | 1107.2 | 1.50576 | 14.44
323.15 K, x2 = 0 | 1235.5 | 1.50543 | 110.35
323.15 K, x2 = 0.2503 | 1188.5 | 1.50436 | 49.65
323.15 K, x2 = 0.5001 | 1145 | 1.50428 | 22.83
323.15 K, x2 = 0.7496 | 1103.8 | 1.5042 | 12.51
328.15 K, x2 = 0 | 1232.4 | 1.50403 | 86.59
328.15 K, x2 = 0.2503 | 1185.3 | 1.50296 | 40.56
328.15 K, x2 = 0.5001 | 1141.7 | 1.50286 | 19.37
328.15 K, x2 = 0.7496 | 1100.5 | 1.50267 | 10.94
333.15 K, x2 = 0 | 1229.2 | 1.5027 | 69.36
333.15 K, x2 = 0.2503 | 1182.1 | 1.50159 | 33.69
333.15 K, x2 = 0.5001 | 1138.4 | 1.50142 | 16.6
333.15 K, x2 = 0.7496 | 1097.2 | 1.50113 | 9.52
338.15 K, x2 = 0 | 1226.1 | 1.50136 | 56.05
338.15 K, x2 = 0.2503 | 1179 | 1.50019 | 28.15
338.15 K, x2 = 0.5001 | 1135.2 | 1.49996 | 14.4
338.15 K, x2 = 0.7496 | 1093.9 | 1.49959 | 8.62
343.15 K, x2 = 0 | 1223 | 1.49997 | 46.1
343.15 K, x2 = 0.2503 | 1175.9 | 1.49878 | 23.86
343.15 K, x2 = 0.5001 | 1132 | 1.49854 | 12.59
343.15 K, x2 = 0.7496 | 1090.6 | 1.4981 | 7.72
348.15 K, x2 = 0 | 1219.9 | 1.4986 | 38.4
348.15 K, x2 = 0.2503 | 1172.7 | 1.49742 | 20.46
348.15 K, x2 = 0.5001 | 1128.8 | 1.49709 | 11.1
348.15 K, x2 = 0.7496 | 1087.3 | 1.49657 | 6.96
353.15 K, x2 = 0 | 1216.8 | 1.49726 | 32.53
353.15 K, x2 = 0.2503 | 1169.4 | 1.49603 | 17.79
353.15 K, x2 = 0.5001 | 1125.6 | 1.49563 | 9.83
353.15 K, x2 = 0.7496 | 1083.9 | 1.49505 | 6.19

From the NIST ThermoML archive (doi:10.1021/acs.jced.5b00242)
